From ChEMBL document CHEMBL1671630, “Phenotypic characterization of two Ancylostoma caninum isolates with different susceptibilities to the anthelmintic pyrantel” (Antimicrob Agents Chemother, 2008)
pEC50, pIC50: −log10 of the molar value.

Tested on: Ancylostoma caninum
Assay: Ratio of IC50 for Ancylostoma caninum isolate NT to IC50 for Ancylostoma caninum isolate PR by larval motility assay
Type: functional

Row | Compound | Ratio IC50
1 | C[N+](C)(CCOc1ccccc1)Cc1ccccc1.O=C([O-])c1cc2ccccc2cc1O [BEPHENIUM HYDROXYNAPHTHOATE] | 0.45
2 | Cl.c1ccc([C@H]2CN3CCSC3=N2)cc1 [LEVAMISOLE HYDROCHLORIDE] | 2.7
3 | CN1CCC[C@H]1c1cccnc1 [NICOTINE] | 0.95

Tested on: Ancylostoma caninum
Assay: Ratio of IC50 for Ancylostoma caninum isolate NT to IC50 for Ancylostoma caninum isolate PR by larval arrested morphology assay
Type: functional

Row | Compound | Ratio IC50
4 | C[N+](C)(CCOc1ccccc1)Cc1ccccc1.O=C([O-])c1cc2ccccc2cc1O [BEPHENIUM HYDROXYNAPHTHOATE] | 0.46
5 | Cl.c1ccc([C@H]2CN3CCSC3=N2)cc1 [LEVAMISOLE HYDROCHLORIDE] | 7.2
6 | CN1CCC[C@H]1c1cccnc1 [NICOTINE] | 1.07
7 | CN1CCCN=C1/C=C/c1cccs1.O=C(O)c1cc2ccccc2c(Cc2c(O)c(C(=O)O)cc3ccccc23)c1O [PYRANTEL PAMOATE] | 18.3

Tested on: Ancylostoma caninum
Assay: Antiparasitic activity against Ancylostoma caninum isolate PR assessed as compound concentration required to inhibit parasitic contraction by larval motility assay
Type: functional

Row | Compound | pIC50
8 | C[N+](C)(CCOc1ccccc1)Cc1ccccc1.O=C([O-])c1cc2ccccc2cc1O [BEPHENIUM HYDROXYNAPHTHOATE] | 5.07
9 | Cl.c1ccc([C@H]2CN3CCSC3=N2)cc1 [LEVAMISOLE HYDROCHLORIDE] | 8.40
10 | CN1CCC[C@H]1c1cccnc1 [NICOTINE] | 5.44

Tested on: Ancylostoma caninum
Assay: Antiparasitic activity against Ancylostoma caninum isolate NT assessed as concentration of drug required to cause a force of contraction half that of the KCl-induced maximal contraction by force transduction assay
Type: functional

Row | Compound | pEC50
11 | C[N+](C)(CCOc1ccccc1)Cc1ccccc1.O=C([O-])c1cc2ccccc2cc1O [BEPHENIUM HYDROXYNAPHTHOATE] | 2.54
12 | Cl.c1ccc([C@H]2CN3CCSC3=N2)cc1 [LEVAMISOLE HYDROCHLORIDE] | 3.92
13 | CN1CCC[C@H]1c1cccnc1 [NICOTINE] | 3.03
14 | CN1CCCN=C1/C=C/c1cccs1 [PYRANTEL PAMOATE] | 3.66

Tested on: Ancylostoma caninum
Assay: Ratio of EC50 for Ancylostoma caninum isolate PR to […] by force transduction assay
Type: functional

Row | Compound | Ratio EC50
15 | C[N+](C)(CCOc1ccccc1)Cc1ccccc1.O=C([O-])c1cc2ccccc2cc1O [BEPHENIUM HYDROXYNAPHTHOATE] | 0.97
16 | Cl.c1ccc([C@H]2CN3CCSC3=N2)cc1 [LEVAMISOLE HYDROCHLORIDE] | 2
17 | CN1CCC[C@H]1c1cccnc1 [NICOTINE] | 2.1
18 | CN1CCCN=C1/C=C/c1cccs1.O=C(O)c1cc2ccccc2c(Cc2c(O)c(C(=O)O)cc3ccccc23)c1O [PYRANTEL PAMOATE] | 3.1

Tested on: Ancylostoma caninum
Assay: Antiparasitic activity against Ancylostoma caninum isolate NT assessed as compound concentration required to inhibit parasitic contraction by larval arrested morphology assay
Type: functional

Row | Compound | pIC50
19 | C[N+](C)(CCOc1ccccc1)Cc1ccccc1.O=C([O-])c1cc2ccccc2cc1O [BEPHENIUM HYDROXYNAPHTHOATE] | 4.35
20 | Cl.c1ccc([C@H]2CN3CCSC3=N2)cc1 [LEVAMISOLE HYDROCHLORIDE] | 8.66
21 | CN1CCC[C@H]1c1cccnc1 [NICOTINE] | 5.24
22 | CN1CCCN=C1/C=C/c1cccs1 [PYRANTEL PAMOATE] | 8.43

Tested on: Ancylostoma caninum
Assay: Antiparasitic activity against Ancylostoma caninum isolate PR assessed as concentration of drug required to cause a force of contraction half that of the KCl-induced maximal contraction by force transduction assay
Type: functional

Row | Compound | pEC50
23 | C[N+](C)(CCOc1ccccc1)Cc1ccccc1.O=C([O-])c1cc2ccccc2cc1O [BEPHENIUM HYDROXYNAPHTHOATE] | 2.55
24 | Cl.c1ccc([C@H]2CN3CCSC3=N2)cc1 [LEVAMISOLE HYDROCHLORIDE] | 3.61
25 | CN1CCC[C@H]1c1cccnc1 [NICOTINE] | 2.71
26 | CN1CCCN=C1/C=C/c1cccs1 [PYRANTEL PAMOATE] | 3.17

Tested on: Ancylostoma caninum
Assay: Antiparasitic activity against Ancylostoma caninum isolate NT assessed as compound concentration required to inhibit parasitic contraction by larval motility assay
Type: functional

Row | Compound | pIC50
27 | C[N+](C)(CCOc1ccccc1)Cc1ccccc1.O=C([O-])c1cc2ccccc2cc1O [BEPHENIUM HYDROXYNAPHTHOATE] | 4.72
28 | Cl.c1ccc([C@H]2CN3CCSC3=N2)cc1 [LEVAMISOLE HYDROCHLORIDE] | 8.82
29 | CN1CCC[C@H]1c1cccnc1 [NICOTINE] | 5.43

Tested on: Ancylostoma caninum
Assay: Antiparasitic activity against Ancylostoma caninum isolate PR assessed as compound concentration required to inhibit parasitic contraction by larval arrested morphology assay
Type: functional

Row | Compound | pIC50
30 | C[N+](C)(CCOc1ccccc1)Cc1ccccc1.O=C([O-])c1cc2ccccc2cc1O [BEPHENIUM HYDROXYNAPHTHOATE] | 4.77
31 | Cl.c1ccc([C@H]2CN3CCSC3=N2)cc1 [LEVAMISOLE HYDROCHLORIDE] | 7.77
32 | CN1CCC[C@H]1c1cccnc1 [NICOTINE] | 5.21
33 | CN1CCCN=C1/C=C/c1cccs1 [PYRANTEL PAMOATE] | 7.18
